# Results published in patent US12478671B2, “Sterols as novel immunomodulatory agents and their use as vaccine adjuvants” (Ohio State Innovation Foundation, priority 2017, dated 2025).
# What was measured:
# [1] = test system: OVA-immunized mice; experiment: Mouse immunization study: serum IgG1 and IgG2a antibody ELISA; format: in vivo, BALB/c mice; conditions: 10 μg and 100 μg with 100 μg OVA s.c., compared to vehicle controls (FIG. 6)
# Protocol: (§1) Mouse Immunization Studies. Six- to seven-week-old female BALB/c mice were purchased from Harlan Laboratories (Indianapolis, IN, USA). Mice were randomized into three groups, and immunized subcutaneously with 100 μg OVA (endotoxin free; BioVendor, Ashville, NC, USA) plus vehicle (Group 1), 100 μg OVA plus 10 μg PEN (Group 2), or 100 μg OVA plus 100 μg PEN (group 3, […]). Each group received respective boosting doses of treatment at weeks 2 and 4. Serum was collected from each mouse at every two weeks after initial immunization for detection of IgG1 and IgG2A antibodies by ELISA. Mice were euthanized at week 10 and spleens and lymph nodes were harvested for detection of cytokines IFN-γ, IL-4, IL-10 and IL-13 by ELISA after re-stimulation with 1 mg/mL OVA antigen for 72 h.
# Antibody ELISA. Mice were bled at weeks 2, 4, 6, 8 and 10 after immunization and serum was collected from the blood samples. IgG1 and IgG2a antibody titers were determined by ELISA using HRP-conjugated antibodies (Biolegend) and TMB substrate (KPL, Inc., Gaithersburg, MD, USA). Absorbance was measured at 450 nm by Spectramax microplate reader and data were analyzed by Softmax Pro software (Molecular Devices LLC).
# [2] = test system: RAW macrophages (RAW 264.7); experiment: Macrophage gene expression by RT-PCR; format: cell-based
# Protocol: (§2) Macrophage Activation. RAW macrophages (RAW 264.7 (ATCC TIB-71), ATCC, Manassas, VA, USA) were plated at a concentration of 0.5×10^6 cells per well in 24-well plates, and treated with PEN (25 μM or 50 μM) or DMSO (vehicle control) for 24, 48 and 72 h. At the indicated times, cells were harvested for detection of MHC-II, CD40, CD80, CD86 surface expression by flow cytometry. RNA was also extracted from cells to determine gene expression of Tnfα, Il1b, Il6, IL10, Il15, Il18, Nos2, Arg1, and Chil3 by RT-PCR.
# Real Time PCR. Total RNA was extracted from RAW macrophages using TRIzol reagent (Life Technologies). RNA was reverse-transcribed to cDNAs using an iScript reverse transcriptase kit (Bio-Rad, Hercules, CA, USA). Real-time PCR reactions using the IQ SYBR Green mix reagent were performed in a CFX96 RT-PCR cycler (Bio-Rad). Primer sequences for Tnfa, Illb, 116, IL10, 1115, 1118, Nos2, Argl and Chil3 were selected from the Primer Bank database (pga.mgh.harvard.edu/primerbank). Data were normalized to the reference gene β-actin and presented as fold induction over controls.
# [3] = test system: OT-II T cells co-cultured with BMDCs; experiment: T cell co-culture with OVA-peptide-loaded BMDCs (CFSE proliferation, IFN-γ ELISA); format: cell-based, OT-II transgenic mice
# Protocol: T Cell Co-culture Experiments 5×10^4 BMDCs were pulsed with 10 μg/mL OVA323-339 peptide (Anaspec, Fremont, CA, USA) for 2 h, then incubated with PEN (25 μM or 50 μM) or DMSO (vehicle control) for 24 h. CFSE labeled T cells isolated from spleens of OT-II transgenic mice were added to the wells at a 1:4 (BMDC:T cell) ratio and incubated for 72 h. Antigen-specific T cell proliferation was analyzed by flow cytometry of CFSE stained cells. Cell co-culture supernatants were collected for analysis of IFN-γ cytokine production by ELISA.
# (§3) Cytokine ELISA. Purified anti-mouse antibodies against IFN-γ, IL-4, IL-10, IL-12 (Biolegend, San Diego, CA, USA) and IL-13 (eBiosciences, San Diego, CA, USA) were used to coat plates. Recombinant mouse IFN-γ, IL-4, IL-10, IL-12 and IL-13 (BD Biosciences, San Jose, CA, USA) were used as standards. Biotinylated anti-mouse antibodies for IFN-γ, IL-4, IL-10, IL-12 and IL-13 (Biolegend, San Diego, CA) were used as detection antibodies. AKP-streptavidin (BD Biosciences) and p-nitrophenylphosphate (PNPP, Thermo Fisher Scientific, Waltham, MA, USA) were used for detection. Absorbance was measured at 405 nm using a Spectramax microplate reader and data were analyzed by Softmax Pro software (Molecular Devices LLC, Sunnyvale, CA).
# [4] = test system: RAW macrophages (RAW 264.7); experiment: Macrophage activation: surface expression of MHC-II, CD40, CD80, CD86 by flow cytometry; format: cell-based
# Protocol: as §2
# Flow Cytometry. Macrophages treated with PEN or the DMSO control were harvested, washed in PBS, blocked with normal mouse serum, and incubated with fluorochrome conjugated antibodies against the cell surface markers CD40, CD80, CD86 and MHC-II (Biolegend). Cells were acquired on a BD FACS Calibur (BD Biosciences) and analysis was performed using FlowJo software (Tree Star Inc, Ashland, OR, USA).
# [5] = test system: RAW-Blue NF-kB/AP1 reporter cell line; experiment: NF-κB and AP-1 activity assay (SEAP reporter, alkaline phosphatase activity); format: cell-based; conditions: 25 μM, 24 h, compared to vehicle alone (FIG. 1)
# Protocol: NF-κB and AP-1 Activity Assay. NF-kB and AP-1 activity was analyzed using the RAW-Blue NF-kB/AP1 reporter cell line (InvivoGen, San Diego, CA, USA), which contains a secreted embryonic alkaline phosphatase (SEAP) reporter construct, inducible by NF-κB and AP-1. Cells were cultured in RPMI 1640 medium supplemented with 10% FBS (Atlanta Biologicals, Flowery Branch, GA, USA) and 1% penicillin streptomycin (Life Technologies, Carlsbad, CA, USA), and stimulated with 25 μM PEN or DMSO (vehicle control) for 24 h. Culture supernatants were then collected and alkaline phosphatase activity was determined by incubating with the detection medium QUANTI-Blue (InvivoGen), and measuring at 655 nm using a SpectraMax spectrophotometer (Molecular Devices LLC, Sunnyvale CA, USA) and analyzed using Softmax Pro software (Molecular Devices LLC).
# [6] = test system: OVA-immunized mice; experiment: Mouse immunization study: cytokines of spleen and lymph node cells after ex vivo OVA re-stimulation; format: in vivo, BALB/c mice
# Protocol: as §1, §3
# [7] = test system: Bone marrow-derived dendritic cells (BMDCs); experiment: Cytokine production (ELISA) by bone marrow-derived dendritic cells; format: cell-based, C57BL/6 mice
# Protocol: Isolation of Mouse Bone Marrow-derived Dendritic Cells. Bone marrow-derived dendritic cells (BMDCs) were prepared by harvesting bone marrow cells from the femurs and tibias of C57BL/6 mice. Red blood cell lysis was performed in ACK lysis buffer, and subsequent cells were plated in RPMI medium supplemented with 10% FBS, 1% penicillin-streptomycin (Life Technologies) and 20 ng/mL GM-CSF (Peprotech, Rocky Hill, NJ, USA) at 5 million cells/dish for 6 to 8 days. Cells were harvested then stimulated with PEN (25 μM or 50 μM) or DMSO for 24 h, and culture supernatants were collected for detection of IL-12 and IL-10 cytokines by ELISA.
# as §3
# [8] = both concentrations (25 μM, 50 μM), 72 h
smiles,measurement,setting,value
"C=C(CCC=C(C)C)[C@H]1CC[C@H]2[C@@H]3CCC4=CC(=O)CC[C@]4(C)[C@H]3CC[C@]12C [PEN, pentalinonsterol]",IgG1 antibody titers,[1],significantly increased
same,IgG2a antibody titers,[1],significantly increased
same,transcript levels of Arg1,[2],increased
same,IL-15 gene transcripts,"[2]; 25 μM, after 24 h (FIG. 3E)",increased
same,IL-18 gene transcripts,"[2]; 25 μM, after 24 h (FIG. 3F)",increased
same,Il1b gene expression,"[2]; 24 and 48 h, not statistically significant (FIG. 3B)",increased trend
same,mRNA levels of Tnfα,[2]; 48 h (FIG. 3A),increases
same,mRNA levels of Il6,[2]; 48 h (FIG. 3C),increases
same,gene transcript levels of Nos2,[2]; after 48 h (FIG. 3D),significantly increased
same,transcript levels of Chil3,[2]; at 24 h and 48 h,significantly reduced
same,transcript levels of IL-10,[2]; at 48 h,significantly reduced
same,T cell proliferation,"[3]; 72 h co-culture, PEN-treated vs DMSO-treated BMDCs (FIG. 4C)",higher
same,production of IFN-γ by T cells,"[3]; 72 h co-culture, PEN-treated vs DMSO-treated BMDCs (FIG. 4D)",significantly increased
same,"T cell responses (proliferation and IFN-γ), 50 μM compared to 25 μM",[3]; BMDCs treated with 50 μM vs 25 μM,greater
same,expression of CD40,"[4]; 25 μM and 50 μM, after 72 h (FIGS. 2A, 2E)",significantly enhanced
same,expression of MHC-II,"[4]; 25 μM and 50 μM, at 48 h and 72 h (FIGS. 2B, 2F)",significantly enhanced
same,expression of CD80,"[4]; 50 μM, 48 h",increased
same,expression of CD86,"[4]; 50 μM, 48 h",increased
same,expression of CD80,[4]; [8],increased
same,expression of CD86,[4]; [8],increased
same,alkaline phosphatase activity (NF-κB/AP-1 SEAP reporter),[5],significantly increased
same,levels of IL-4,"[6]; culture supernatants of lymph node and splenic cells (FIGS. 7B, 7F)",increased
same,levels of IL-13,"[6]; culture supernatants of lymph node and splenic cells (FIGS. 7D, 7H)",increased
same,levels of IL-10,"[6]; culture supernatants of lymph nodes and spleens, PEN vs vehicle control (FIGS. 7C, 7G)",generally comparable
same,levels of IFN-γ,"[6]; lymph node cells and splenocytes, OVA re-stimulation (FIGS. 7A, 7E)",significantly increased
same,IL-10 production,"[7]; 50 μM, 24 h (FIG. 4B)",slight increase
same,production of IL-12,[7]; 24 h (FIG. 4A),significantly induces
